Measured values as given in patent publication US20080221214A1, “Process for the preparation of "Urchym" a urease and alpha-chymotrypsin enzyme inhibitory drug” (priority 2006, published 2008).

Legend:
[1] = target: T1, Jack bean urease (Canavalia ensiformis, UniProt P07374); experiment: biochemical
T1 construct: purchased Sigma-Aldrich
Description: Reaction mixtures comprising a 25 μL solution of enzyme (Jack bean urease, Sigma-Aldrich, specific activity 15 EU/mg) and 55 μL of buffer (0.01 M K2HPO43H2O, 1 MM EDTA 0.01 M LiCl; pH 8.2) containing 100 mM urea were incubated with 5 μL of the test compounds (0.01 μM-1 mM, dissolved in DMSO) at 30° C. for 15 min in 96-well plates. Urease activity was determined by measuring ammonia production using the indophenol method, 45 μL, of phenol reagent (1% w/v phenol and 0.005% w/v sodium nitroprusside) and 70 μL of alkali reagent (0.5% w/v NaOH and 0.1% w/v NaOCI) were added to each well (the final reaction volume was 200 μL). The increasing absorbance at 630 nm was measured after 50 min using a microplate reader (Molecular Device). All reactions were performed in triplicate. The results (change in absorbance per min) were processed using SoftMax Pro software (Molecular Device). Percent inhibitions were calculated using the formula 100−(ODtest well/ODcontrol×100).

[2] = target: T2, α-chymotrypsin (Bos taurus, UniProt P00766); experiment: α-Chymotrypsin assay and inhibition; assay type: biochemical; conditions: substrate N-succinyl-phenylalanine-p-nitroanilide, pH 7.6, 37° C., 30 min pre-incubation; read-out: IC50 value, α-chymotrypsin inhibitory activity
T2 construct: purchased Sigma-Aldrich
Description: For the determination of α-chymotrypsin inhibitory activity the literature protocol was followed. In brief α-chymotrypsin (9 units/mL in 50 mM Tris-HCl buffer, pH 7.6; Sigma-Aldrich) was pre-incubated with the compound (3.02×10^−5 g/100 μL) for 30 min at 37° C. and then 100 μL of substrate solution (N-succinyl-phenylalanine-p-nitroanilide; 1 mg/mL) in 50 mM Tris-HCl buffer, pH 7.6) was added to start the enzyme reaction. The absorbance of released p-nitroaniline was continuously monitored at 410 nm until a significant color change had achieved. All reactions were performed in triplicate. Percent inhibitions were calculated using the formula 100-(ODtest well/ODcontrol×100).

T1 sequence (P07374 whole entry, looked up): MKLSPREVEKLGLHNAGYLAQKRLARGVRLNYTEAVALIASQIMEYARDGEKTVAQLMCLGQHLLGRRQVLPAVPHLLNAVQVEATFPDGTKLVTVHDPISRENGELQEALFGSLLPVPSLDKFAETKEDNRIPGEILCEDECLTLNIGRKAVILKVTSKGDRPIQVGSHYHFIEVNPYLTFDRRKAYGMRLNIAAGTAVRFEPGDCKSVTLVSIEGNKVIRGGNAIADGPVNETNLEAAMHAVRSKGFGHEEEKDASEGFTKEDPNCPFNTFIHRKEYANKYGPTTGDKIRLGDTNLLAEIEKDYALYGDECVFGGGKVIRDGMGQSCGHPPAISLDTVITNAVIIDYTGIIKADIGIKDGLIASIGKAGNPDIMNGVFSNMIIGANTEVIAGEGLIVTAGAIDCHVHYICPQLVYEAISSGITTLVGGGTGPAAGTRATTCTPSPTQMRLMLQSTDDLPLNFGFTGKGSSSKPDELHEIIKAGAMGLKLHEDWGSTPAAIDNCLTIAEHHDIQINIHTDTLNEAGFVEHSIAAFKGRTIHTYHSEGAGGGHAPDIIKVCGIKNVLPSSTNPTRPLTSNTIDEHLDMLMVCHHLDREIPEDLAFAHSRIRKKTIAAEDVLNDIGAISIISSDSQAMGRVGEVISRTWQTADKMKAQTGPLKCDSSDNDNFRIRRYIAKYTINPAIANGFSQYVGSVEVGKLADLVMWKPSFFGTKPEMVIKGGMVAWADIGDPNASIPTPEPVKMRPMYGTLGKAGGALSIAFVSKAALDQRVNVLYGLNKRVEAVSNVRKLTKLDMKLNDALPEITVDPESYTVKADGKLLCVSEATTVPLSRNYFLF

Question: Which IC50 [1] does the source give for O=C(Nc1ccc([N+](=O)[O-])cc1)Nc1ccc([N+](=O)[O-])cc1 [Urchym, N-4-nitrophenyl-N′-4′-nitrophenylurea] here?
Answer: 1250 nM

Question: And the IC50 [2]?
Answer: 3150 ± 140 nM
